Values of other authors as cited in PMC10275055, “Preventing recurrence in Sonic Hedgehog Subgroup Medulloblastoma using the OLIG2 inhibitor CT-179” (Research Square, 2023).

System: OLIG2 dimerization and DNA binding
Design: method as in PMID 26517684, PMID 31953259
Conditions: cited from earlier work

Which “effect on OLIG2 dimerization and DNA binding” value does the source give for `CCN1CCCC(Nc2cc(C)nc(/N=C(\N)Nc3ccc(Cl)c(Cl)c3)n2)C1` (stereo not shown) [SKOG102] here?
The value was “disrupts OLIG2 dimerization and DNA binding”.
